From US8183388B2, “Androgen receptor modulator and uses thereof” (Eli Lilly and Company, priority 2009, dated 2012)

Biological target: T1, human GR (glucocorticoid receptor) (Homo sapiens, UniProt P04150)
T1 construct: expressed in transfected cells; host or cells: HEK293 (lysate, 293-GR)
T1 sequence (P04150 1-777): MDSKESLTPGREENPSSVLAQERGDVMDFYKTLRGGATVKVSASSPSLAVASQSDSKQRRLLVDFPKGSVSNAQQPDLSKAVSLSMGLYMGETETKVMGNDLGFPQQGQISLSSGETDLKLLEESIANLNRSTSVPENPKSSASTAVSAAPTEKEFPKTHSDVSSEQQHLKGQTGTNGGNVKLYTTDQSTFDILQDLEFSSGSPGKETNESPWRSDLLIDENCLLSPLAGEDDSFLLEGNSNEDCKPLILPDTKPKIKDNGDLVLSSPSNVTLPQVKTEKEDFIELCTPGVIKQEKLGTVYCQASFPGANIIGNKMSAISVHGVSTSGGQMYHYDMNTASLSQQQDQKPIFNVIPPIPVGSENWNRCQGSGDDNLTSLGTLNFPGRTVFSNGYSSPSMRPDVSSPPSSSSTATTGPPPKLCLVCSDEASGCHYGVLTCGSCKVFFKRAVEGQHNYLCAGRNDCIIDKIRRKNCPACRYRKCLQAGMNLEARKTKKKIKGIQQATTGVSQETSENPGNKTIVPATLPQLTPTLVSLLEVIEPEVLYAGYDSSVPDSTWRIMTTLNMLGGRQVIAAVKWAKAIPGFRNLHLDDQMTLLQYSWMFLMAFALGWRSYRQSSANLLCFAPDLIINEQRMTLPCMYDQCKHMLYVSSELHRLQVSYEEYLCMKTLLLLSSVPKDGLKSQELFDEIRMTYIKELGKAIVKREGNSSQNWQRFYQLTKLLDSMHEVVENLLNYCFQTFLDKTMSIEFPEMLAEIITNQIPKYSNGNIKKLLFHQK
Assay: Steroid hormone nuclear receptor binding assay, GR
Conditions: HEK293 lysate overexpressing human GR, [3H]-dexamethasone
Description: Cell lysates from human embryonic kidney HEK293 cells overexpressing human MR (mineralocorticoid receptor), GR (glucocorticoid receptor), AR (androgen receptor), or PR (progesterone receptor) are used for receptor-ligand competition binding assays to determine Ki values. Typical procedures are provided below
Briefly, steroid receptor competition binding assays are run in a buffer containing 20 mM HEPES buffer (pH=7.6), 0.2 mM EDTA, 75 mM NaCl, 1.5 mM MgCl2, 20% glycerol, 20 mM sodium molybdate, 0.2 mM DTT (dithiothreitol), 20 μg/mL aprotinin and 20 μg/mL leupeptin (assay buffer). Typically, steroid receptor binding assays include radio-labeled ligands, such as 0.25 nM [^3H]-aldosterone for MR binding, 0.3 nM [^3H]-dexamethasone for GR binding, 0.36 nM [^3H]-methyltrienolone for AR binding, and 0.29 nM [^3H]-methyltrienolone for PR binding, and either 20 μg 293-MR lysate, 20 μg 293-GR lysate, 22 μg 293-AR lysate, or 40 μg 293-PR lysate per well. Assays are typically run in 96-well format. Competing test compounds are added at various concentrations ranging from about 0.01 nM to 10 μM. Non-specific binding is determined in the presence of 500 nM aldosterone for MR binding, 500 nM dexamethasone for GR binding, or 500 nM methyltrienolone for AR and PR binding. […] After an incubation of 2 hours, plates are read in a Wallac Microbeta counter. […]

`CC(C)OC(=O)N[C@H]1Cc2c(n(C[C@H]3OCC[C@@H]3O)c3ccc(C#N)cc23)C1` [compound of Formula (I), [(S)-7-Cyano-4-((2R,3S)-3-hydroxytetrahydrofuran-2-ylmethyl)-1,2,3,4-tetrahydrocyclopenta[b]indol-2-yl]-carbamic acid isopropyl ester] showed a Ki of over 2000 nM.
